# Assay results published in the supplement of paper PMC10307832.
# What was measured:
# Assay in all cases: relative viability (nuclei count vs DMSO), 5 days (fraction); higher = more cells survive
# HCC-366 = system: HCC-366
# Outline: (§1)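 Each reported value is a median over duplicate plates. It expresses relative viability: treated-well nuclei count divided by vehicle-well nuclei count. Lung cancer cell lines in 1536-well plates were dosed by pin tool a day after seeding, alone with one drug or with a fixed anchor-drug dose plus five library-drug doses (not always all listed) in √10 steps, and nuclei were counted after 5 days.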
# NCI-H460 = system: NCI-H460
# Outline: as §1
# NCI-H1651 = system: NCI-H1651
# Outline: as §1
# NCI-H1755 = system: NCI-H1755
# Outline: as §1
# ABC-1 = system: ABC-1
# Outline: as §1
# NCI-H2228 = system: NCI-H2228
# Outline: as §1
# CAL-12T = system: CAL-12T
# Outline: as §1
# PC-3 [JPC-3] = system: PC-3 [JPC-3]
# Outline: as §1
# NCI-H2405 = system: NCI-H2405
# Outline: as §1
# LOU-NH91 = system: LOU-NH91
# Outline: as §1
# RERF-LC-KJ = system: RERF-LC-KJ
# Outline: as §1
# NCI-H2170 = system: NCI-H2170
# Outline: as §1
# NCI-H2087 = system: NCI-H2087
# Outline: as §1
# UMC-11 = system: UMC-11
# Outline: as §1
# NCI-H3122 = system: NCI-H3122
# Outline: as §1
# NCI-H1734 = system: NCI-H1734
# Outline: as §1
# NCI-H1395 = system: NCI-H1395
# Outline: as §1
# NCI-H1944 = system: NCI-H1944
# Outline: as §1
# NCI-H1793 = system: NCI-H1793
# Outline: as §1
# HCC-78 = system: HCC-78
# Outline: as §1
# LC-2-ad = system: LC-2-ad
# Outline: as §1
# LU99A = system: LU99A
# Outline: as §1
structure (smiles),measurement,setting,value
O=C(O)c1ccc(-c2c[nH]c3ncc(-c4ccccc4)cc23)cc1C1CCCC1 + CS(=O)(=O)CCNCc1ccc(-c2ccc3ncnc(Nc4ccc(OCc5cccc(F)c5)c(Cl)c4)c3c2)o1 [Lapatinib] (partner 2 µM),relative viability,HCC-366; first compound 0.04 µM,1.01
same,relative viability,HCC-366; first compound 0.1265 µM,0.869
same,relative viability,HCC-366; first compound 0.4 µM,0.953
same,relative viability,HCC-366; first compound 1.265 µM,0.981
same,relative viability,NCI-H460; first compound 0.04 µM,0.897
same,relative viability,NCI-H460; first compound 0.1265 µM,1.03
same,relative viability,NCI-H460; first compound 0.4 µM,0.801
same,relative viability,NCI-H460; first compound 1.265 µM,0.782
same,relative viability,NCI-H1651; first compound 0.04 µM,0.856
same,relative viability,NCI-H1651; first compound 0.1265 µM,0.867
same,relative viability,NCI-H1651; first compound 0.4 µM,0.826
same,relative viability,NCI-H1651; first compound 1.265 µM,0.472
same,relative viability,NCI-H1755; first compound 0.04 µM,1.02
same,relative viability,NCI-H1755; first compound 0.1265 µM,1.11
same,relative viability,NCI-H1755; first compound 0.4 µM,1.02
same,relative viability,NCI-H1755; first compound 1.265 µM,0.967
same,relative viability,ABC-1; first compound 0.04 µM,1.05
same,relative viability,ABC-1; first compound 0.1265 µM,1.08
same,relative viability,ABC-1; first compound 0.4 µM,1.09
same,relative viability,ABC-1; first compound 1.265 µM,1.52
same,relative viability,NCI-H2228; first compound 0.04 µM,1.17
same,relative viability,NCI-H2228; first compound 0.1265 µM,1.41
same,relative viability,NCI-H2228; first compound 0.4 µM,1.2
same,relative viability,NCI-H2228; first compound 1.265 µM,0.362
same,relative viability,CAL-12T; first compound 0.04 µM,0.788
same,relative viability,CAL-12T; first compound 0.1265 µM,0.908
same,relative viability,CAL-12T; first compound 0.4 µM,0.705
same,relative viability,CAL-12T; first compound 1.265 µM,0.423
same,relative viability,PC-3 [JPC-3]; first compound 0.04 µM,0.51
same,relative viability,PC-3 [JPC-3]; first compound 0.1265 µM,0.489
same,relative viability,PC-3 [JPC-3]; first compound 0.4 µM,0.466
same,relative viability,PC-3 [JPC-3]; first compound 1.265 µM,0.459
same,relative viability,NCI-H2405; first compound 0.04 µM,1.08
same,relative viability,NCI-H2405; first compound 0.1265 µM,1.34
same,relative viability,NCI-H2405; first compound 0.4 µM,0.868
same,relative viability,NCI-H2405; first compound 1.265 µM,0.867
same,relative viability,LOU-NH91; first compound 0.04 µM,0.814
same,relative viability,LOU-NH91; first compound 0.1265 µM,0.837
same,relative viability,LOU-NH91; first compound 0.4 µM,0.766
same,relative viability,LOU-NH91; first compound 1.265 µM,0.651
same,relative viability,RERF-LC-KJ; first compound 0.04 µM,0.8
same,relative viability,RERF-LC-KJ; first compound 0.1265 µM,0.848
same,relative viability,RERF-LC-KJ; first compound 0.4 µM,0.832
same,relative viability,RERF-LC-KJ; first compound 1.265 µM,0.825
same,relative viability,NCI-H2170; first compound 0.04 µM,0.26
same,relative viability,NCI-H2170; first compound 0.1265 µM,0.324
same,relative viability,NCI-H2170; first compound 0.4 µM,0.262
same,relative viability,NCI-H2170; first compound 1.265 µM,0.28
same,relative viability,NCI-H2087; first compound 0.04 µM,1.01
same,relative viability,NCI-H2087; first compound 0.1265 µM,1.27
same,relative viability,NCI-H2087; first compound 0.4 µM,1.02
same,relative viability,NCI-H2087; first compound 1.265 µM,1.02
same,relative viability,UMC-11; first compound 0.04 µM,0.994
same,relative viability,UMC-11; first compound 0.1265 µM,1.09
same,relative viability,UMC-11; first compound 0.4 µM,1.06
same,relative viability,UMC-11; first compound 1.265 µM,1.01
same,relative viability,NCI-H3122; first compound 0.04 µM,1.02
same,relative viability,NCI-H3122; first compound 0.1265 µM,1.01
same,relative viability,NCI-H3122; first compound 0.4 µM,0.974
same,relative viability,NCI-H3122; first compound 1.265 µM,0.857
same,relative viability,NCI-H1734; first compound 0.04 µM,1.07
same,relative viability,NCI-H1734; first compound 0.1265 µM,1.1
same,relative viability,NCI-H1734; first compound 0.4 µM,0.955
same,relative viability,NCI-H1734; first compound 1.265 µM,0.984
same,relative viability,NCI-H1395; first compound 0.04 µM,1.01
same,relative viability,NCI-H1395; first compound 0.1265 µM,1.23
same,relative viability,NCI-H1395; first compound 0.4 µM,0.867
same,relative viability,NCI-H1395; first compound 1.265 µM,0.851
same,relative viability,NCI-H1944; first compound 0.04 µM,0.695
same,relative viability,NCI-H1944; first compound 0.1265 µM,1
same,relative viability,NCI-H1944; first compound 0.4 µM,0.623
same,relative viability,NCI-H1944; first compound 1.265 µM,0.736
same,relative viability,NCI-H1793; first compound 0.04 µM,0.897
same,relative viability,NCI-H1793; first compound 0.1265 µM,1.34
same,relative viability,NCI-H1793; first compound 0.4 µM,0.969
same,relative viability,NCI-H1793; first compound 1.265 µM,0.71
same,relative viability,HCC-78; first compound 0.04 µM,0.595
same,relative viability,HCC-78; first compound 0.1265 µM,1.25
same,relative viability,HCC-78; first compound 0.4 µM,0.979
same,relative viability,HCC-78; first compound 1.265 µM,0.64
same,relative viability,LC-2-ad; first compound 0.04 µM,1
same,relative viability,LC-2-ad; first compound 0.1265 µM,1.02
same,relative viability,LC-2-ad; first compound 0.4 µM,0.904
same,relative viability,LC-2-ad; first compound 1.265 µM,0.803
same,relative viability,LU99A; first compound 0.04 µM,0.972
same,relative viability,LU99A; first compound 0.1265 µM,1.2
same,relative viability,LU99A; first compound 0.4 µM,0.954
same,relative viability,LU99A; first compound 1.265 µM,0.792
